Data on twelve compounds can be found in ChEMBL document CHEMBL1201862, “PubChem BioAssay data set” (2004).

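Following 48 hours of exposure in 96-well plates, responses at five concentrations were used to interpolate endpoints linearly. Here, GI50 denotes the concentration required for 50% inhibition of growth.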 Activity calls are given as the source filed them. Rule as the data show it: active = GI50 up to about 1.1 µM and inactive = higher.

Some test systems named below: UACC-257; Malme-3M; HOP-92; Hs-578T; HCT-15; OVCAR-4; RXF 393; 786-0; KM12; K562; T47D; NCI/ADR-RES; SK-MEL-5; MDA-N; HOP-62; CAKI-1; SW-620; LOX IMVI; HL-60.
Common to all, as to test: growth of human tumour cells (NCI), 48 h

Regarding `CCOC(=O)c1cc(-c2ccc([N+](=O)[O-])cc2)c([N+](=O)[O-])[nH]1`, the GI50 in the experiment with UACC-257 was 1.6 µM (inactive); in the experiment on Malme-3M, > 10 µM (inactive); in the experiment with HOP-92, 1.22 µM (inactive); in the experiment on Hs-578T it was 3.34 µM (inactive); with HCT-15 it was 2.9 µM; with OVCAR-4 it was 4.23 µM (inactive). The GI50 with RXF 393 was 2.18 µM (inactive); in the experiment with 786-0, 3.52 µM (inactive); with KM12 it was 7.19 µM (inactive); in the experiment on K562, 3.48 µM (inactive); in the experiment with T47D, 2.33 µM (inactive); in the experiment on NCI/ADR-RES, 3.1 µM (inactive).

Consider `CC1(C)Oc2ccc3c(=O)c4ccccc4oc3c2C1C(=O)O` (stereo not given), for which the GI50 with UACC-257, in the experiment on Malme-3M, with SK-MEL-5, with Hs-578T, in the experiment with OVCAR-4 and with RXF 393 was > 100 µM (inactive) throughout. Also, the GI50 in the experiment with MDA-N, in the experiment with 786-0, in the experiment with K562, in the experiment with HOP-62, in the experiment on CAKI-1 and in the experiment with T47D was > 100 µM (inactive) each time. Moreover, the GI50 in the experiment with NCI/ADR-RES is > 100 µM (inactive).

As for `CCOC(=O)c1cn(-c2ccccc2)c(=S)n2c1nc1ccccc12`, the GI50 with UACC-257 is 40 µM (inactive); in the experiment on HOP-92, 13.9 µM (inactive); in the experiment on SK-MEL-5 it was 23.1 µM (inactive); in the experiment on HCT-15, 41.5 µM; in the experiment with OVCAR-4, 37.4 µM (inactive); in the experiment on RXF 393, 54.8 µM (inactive). Moreover, the GI50 is 41.1 µM (inactive) in the experiment on MDA-N; 43.4 µM (inactive) with 786-0; 33.7 µM (inactive) with KM12; 18.3 µM (inactive) with K562; 52.6 µM (inactive) in the experiment with SW-620; > 67.1 µM (inactive) in the experiment on LOX IMVI. The GI50 is 53.2 µM (inactive) in the experiment with HOP-62, 49 µM (inactive) in the experiment with CAKI-1, 80 µM (inactive) with T47D and 25.5 µM (inactive) in the experiment on NCI/ADR-RES.

Consider `C=C1C(=O)C([Si](C)(C)C)=C2C=C(C)C3(CC3)C12C` (stereo not given), for which the GI50 in the experiment with UACC-257 is 17.9 µM (inactive); in the experiment on Malme-3M it was 14.7 µM (inactive); with SK-MEL-5, 19.4 µM (inactive); with Hs-578T it was 41.5 µM (inactive); with HCT-15 it was 35.8 µM; in the experiment with OVCAR-4, 25.6 µM (inactive). The GI50 with RXF 393 was 15.3 µM (inactive); in the experiment with MDA-N it was 22.7 µM (inactive); in the experiment on 786-0 it was 95.3 µM (inactive); in the experiment with KM12 it was 38.3 µM (inactive); in the experiment on K562, 19.1 µM (inactive); in the experiment with SW-620, 59.7 µM (inactive). Besides, the GI50 in the experiment with HL-60 was 7.08 µM (inactive); with LOX IMVI, 22.6 µM (inactive); in the experiment on HOP-62 it was > 100 µM (inactive); with CAKI-1, 35.6 µM (inactive); with T47D, > 100 µM (inactive); in the experiment on NCI/ADR-RES it was 13.7 µM (inactive).

For `O=C1C(C(c2ccccc2)N2CCOCC2)=C(O)C(c2ccccc2)N1c1ccccc1` (stereo not given), the GI50 in the experiment with UACC-257 was > 10 µM (inactive); in the experiment on Malme-3M it was 3.05 µM (inactive); in the experiment with SK-MEL-5 it was > 10 µM (inactive); with Hs-578T, > 10 µM (inactive); in the experiment with HCT-15, greater than 10 µM; in the experiment on RXF 393 it was > 10 µM (inactive). The GI50 in the experiment on MDA-N, in the experiment on 786-0, in the experiment on KM12, with K562, with SW-620 and in the experiment on HL-60 was > 10 µM (inactive) in each case. The GI50 in the experiment with LOX IMVI, with HOP-62, with CAKI-1, in the experiment with T47D and with NCI/ADR-RES was > 10 µM (inactive) each time.

On to `Cc1ccc(S(=O)(=O)n2c3c(c4ccccc42)CCN2C[C@H]([C@H](C)Br)CC[C@@H]32)cc1`, for which the GI50 was > 100 µM (inactive) with UACC-257; > 100 µM (inactive) in the experiment on Malme-3M; > 100 µM (inactive) in the experiment with HOP-92; 29.2 µM (inactive) in the experiment on SK-MEL-5; greater than 100 µM in the experiment on HCT-15; > 100 µM (inactive) in the experiment on OVCAR-4. Further, the GI50 was > 100 µM (inactive) in the experiment on RXF 393; > 100 µM (inactive) in the experiment on MDA-N; > 100 µM (inactive) in the experiment with 786-0; > 100 µM (inactive) in the experiment on KM12; 25.7 µM (inactive) in the experiment on K562; > 100 µM (inactive) with SW-620. The GI50 in the experiment on HL-60 was 6.46 µM (inactive); in the experiment on LOX IMVI, > 100 µM (inactive); with HOP-62, > 100 µM (inactive); in the experiment with CAKI-1, > 100 µM (inactive); in the experiment with T47D, > 100 µM (inactive); in the experiment with NCI/ADR-RES, > 100 µM (inactive).

In the case of `COC(=O)C1(O)C(c2ccccc2)NC2(C)CCCC21` (stereo not given), the GI50 in the experiment on UACC-257 is > 100 µM (inactive); in the experiment on Malme-3M, > 100 µM (inactive); in the experiment with SK-MEL-5 it was > 100 µM (inactive); with Hs-578T, > 100 µM (inactive); in the experiment on HCT-15, greater than 100 µM; in the experiment with OVCAR-4 it was > 100 µM (inactive). Besides, the GI50 in the experiment with RXF 393, in the experiment on MDA-N, in the experiment with 786-0, in the experiment on KM12, in the experiment on SW-620 and in the experiment with HL-60 was > 100 µM (inactive) each time. The GI50 with LOX IMVI, in the experiment on HOP-62, with CAKI-1, in the experiment with T47D and with NCI/ADR-RES was > 100 µM (inactive) in each case.

As to `N#CSC1CCCCNC1=O` (stereo not given), the GI50 in the experiment with UACC-257 was 17.1 µM (inactive); in the experiment with Malme-3M it was 14.4 µM (inactive); in the experiment on HOP-92, 2.78 µM (inactive); in the experiment on Hs-578T, 16.1 µM (inactive); in the experiment on HCT-15 it was 11.8 µM; in the experiment with RXF 393 it was 13.7 µM (inactive). Besides, the GI50 in the experiment with 786-0 was 14.7 µM (inactive); with KM12, 14.1 µM (inactive); in the experiment on K562, 18.2 µM (inactive); with HL-60 it was 23.9 µM (inactive); in the experiment on LOX IMVI it was 13.5 µM (inactive); in the experiment with HOP-62, 20.6 µM (inactive). The GI50 with CAKI-1 is 11.8 µM (inactive); in the experiment with T47D, 13 µM (inactive); with NCI/ADR-RES, 12.8 µM (inactive).

Take `O=C(Nc1ccccc1F)c1cc2ccc(O)cc2o/c1=N\c1ccccc1F`: the GI50 was 2.74 µM (inactive) in the experiment with UACC-257; 1.73 µM (inactive) in the experiment with Malme-3M; 1.77 µM (inactive) with SK-MEL-5; 2.33 µM (inactive) in the experiment with Hs-578T; 2.47 µM with HCT-15; 1.85 µM (inactive) in the experiment on OVCAR-4. Besides, the GI50 in the experiment on MDA-N was 2.29 µM (inactive); in the experiment on 786-0 it was 1.79 µM (inactive); with KM12 it was 1.98 µM (inactive); in the experiment on K562, 2.15 µM (inactive); with SW-620 it was 2.88 µM (inactive); in the experiment on HL-60 it was 2.09 µM (inactive). The GI50 was 2.57 µM (inactive) in the experiment on LOX IMVI; 2.19 µM (inactive) in the experiment with HOP-62; 1.98 µM (inactive) in the experiment on CAKI-1; 1.96 µM (inactive) in the experiment with T47D; 2.42 µM (inactive) in the experiment with NCI/ADR-RES.

For `CCN(CC)C(=O)N[C@@H](Cc1ccccc1)C(=O)NC`, the GI50 in the experiment on Malme-3M was > 100 µM (inactive); in the experiment with SK-MEL-5 it was > 100 µM (inactive); in the experiment on Hs-578T, > 100 µM (inactive); with HCT-15 it was greater than 100 µM; in the experiment with OVCAR-4, > 100 µM (inactive); with RXF 393, > 100 µM (inactive). Further, the GI50 in the experiment on MDA-N, with 786-0, with KM12, with K562, with SW-620 and in the experiment with HL-60 was > 100 µM (inactive) each time. Also, the GI50 in the experiment on LOX IMVI, in the experiment with HOP-62, with CAKI-1, in the experiment with T47D and in the experiment with NCI/ADR-RES was > 100 µM (inactive) each time.

Consider `CCOC(=O)C1(C/C=C/CBr)CCc2ccccc2C1=O` (stereo not given), for which the GI50 in the experiment with UACC-257 was 15.9 µM (inactive); in the experiment with Malme-3M, 19.1 µM (inactive); in the experiment with SK-MEL-5, 12 µM (inactive); with Hs-578T it was 30.8 µM (inactive); with HCT-15, 19.7 µM; in the experiment with OVCAR-4 it was 13.6 µM (inactive). Besides, the GI50 in the experiment on RXF 393 is 6.03 µM (inactive); in the experiment on MDA-N, 14.4 µM (inactive); with 786-0, 16.2 µM (inactive); in the experiment on KM12, 15.5 µM (inactive); in the experiment with SW-620 it was 14.5 µM (inactive); in the experiment on HL-60, 6.3 µM (inactive). For the same compound, the GI50 with LOX IMVI is 6.37 µM (inactive); with HOP-62 it was 16.2 µM (inactive); in the experiment with CAKI-1, 15.1 µM (inactive); with T47D it was 14.3 µM (inactive); in the experiment with NCI/ADR-RES, 22 µM (inactive).

Turning to `CC1C[C@]2(C)C(=O)N(c3ccccc3)C(=N)[C@@H]2N(C)c2ccccc21` (stereo not given in full), the GI50 is > 100 µM (inactive) with UACC-257; > 100 µM (inactive) in the experiment with Malme-3M; > 100 µM (inactive) with SK-MEL-5; > 100 µM (inactive) in the experiment with Hs-578T; greater than 100 µM in the experiment on HCT-15; > 100 µM (inactive) in the experiment with OVCAR-4. Moreover, the GI50 in the experiment on RXF 393, in the experiment on MDA-N, in the experiment with 786-0, with KM12, in the experiment on K562 and in the experiment on SW-620 was > 100 µM (inactive) throughout. Besides, the GI50 in the experiment on HL-60, in the experiment with LOX IMVI, in the experiment with HOP-62, with CAKI-1, in the experiment on T47D and with NCI/ADR-RES was > 100 µM (inactive) in each case.
